Experiment [1] has as its target T1, STING AQ: His-TVMV-S-hSTING(155-341)-G230A-R293Q (Homo sapiens, UniProt Q86WV6, G230A/H232R/R293Q).
T1 construct: STING AQ: His-TVMV-S-hSTING(155-341)-G230A-R293Q
The experiment can be described thus: STING HTRF binding assay (time resolved FRET competition), STING AQ. Particulars: 20 nM His-tagged STING AQ cytoplasmic domain, 40 nM fluorescein-labeled cGAMP analog probe, one hour; read-out: HTRF Binding Assays IC50 (μM) AQ. How it is done: (§1) A time resolved FRET-based competition binding assay was used to assess test article binding to STING WT and STING AQ. His-tagged STING cytoplasmic domain (WT or AQ) at a concentration of 20 nM was incubated with 2.5 nM Tb-labeled anti-His antibody, test compound, and fluorescein-labeled cGAMP analog probe (BioLog cat. no. C195) at a concentration of 200 nM (STING WT) or 40 nM (STING AQ) in PBS containing 0.005% Tween-20 and 0.1% BSA for one hour. Fluorescence at 495 nm and 520 nm was measured using an EnVision microplate reader to quantify FRET between Tb-labeled anti-His antibody and fluorescein-labeled probe. Background was defined as the signal obtained in the absence of STING protein, and background subtracted FRET ratios were normalized to the maximum signal obtained in the absence of test compound. These values were converted to a percent inhibition. Percent inhibition was determined for test compounds at 11 concentrations. The IC50, defined as the concentration of competing test compound needed to reduce specific binding of the probe by 50%, was calculated using the 4 parameter logistic equation to fit the data

The subject of experiment [2] is THP1-Dual cells, IRF pathway (IRF3). The experiment can be described thus: STING THP1 Reporter Assay, IRF pathway (secreted Lucia luciferase, QUANTI-Luc). Particulars: 10% human plasma, luciferase readout, 100% activation = 100 μM cGAMP, read-out: THP1 Reporter Assays EC50 (μM) IRF3. Type of experiment: cell-based. The source says: (§2) THP1-Dual™ cells were derived from the human THP-1 monocyte cell line by stable integration of two inducible reporter constructs. To this end, THP1-Dual™ cells allow the simultaneous study of the NF-κB pathway, by monitoring the activity of SEAP, and the IRF pathway by assessing the activity of a secreted luciferase (Lucia). Both reporter proteins are readily measurable in the cell culture supernatant when using QUANTI-Blue™, a SEAP detection reagent, and QUANTI-Luc™, a luciferase detection reagent.
(§3) THP1-Dual™ cells induce the activation of NF-κB in response to STING agonists. They also trigger the IRF pathway upon stimulation with STING agonists, such as cGAMP. Here, the THP-1-Dual cells were used to assess STING binders for function on the cellular level.
(§4) Serial dilutions of compounds in DMSO were added to low volume 384 well plates at 100 nl/well using an ECHO acoustic dispenser (Labcyte, model 550) to achieve final starting concentration of 100 μM in cell suspension. THP-1 Dual™ STING reporter cells (Invivogen, Dual cells cat #THPD-nfis) were added to the plates with compounds at 15,000 cells in 10 μL per well in RPMI media (Gibco, cat #11875) containing 10% human plasma in a low volume 384-well black wall clear bottom tissue culture plate (Corning, cat #3542) for SEAP assay and low volume solid white plate (Corning, cat #3826) for luciferase assay. One column of the plate was reserved for treatment with cGAMP at 100 μM for 100% activation calculation and one column for no treatment (DMSO only) for baseline activation. Plates were then incubated in 37 OC incubator at 5% CO2 for 20 hours.
(§5) In the SEAP assay, 5 μl of 2× QuantiBlue (Invivogen, cat #Rep-qb2) is added to 384 well black plates seeded with THP1 cells and incubated at 37° C. for 2 hours. Plates were read on the Envision (Perkin Elmer) at 620 nm wavelength (OD620). In the luciferase assay, 5 μl of Quantiluc (Invivogen, Rep-qlc2) is added to white 384 well plates seeded with THP1 cells and read at 5 minutes on the Envision (Perkin Elmer) using a luminescence protocol (RLU). For both cell lines, 100% activation was determined by value (RLU) of THP-1 Dual STING cells stimulated with 100 μM cGAMP (Invivogen, cat #TLRL-NACGA23-5).

The test system of experiment [3] is THP1-Dual cells, NF-κB pathway. The experiment can be described thus: STING THP1 Reporter Assay, NF-κB pathway (SEAP, QUANTI-Blue). The format is cell-based. Particulars: 10% human plasma, SEAP readout (OD620), 100% activation = 100 μM cGAMP, read-out: THP1 Reporter Assays EC50 (μM) NFkB.
Text: as §2, §3, §4, §5

The target of experiment [4] is T2, STING WT: His-TVMV-S-hSTING(155-341)-H232R (Homo sapiens, UniProt Q86WV6, H232R).
T2 construct: STING WT: His-TVMV-S-hSTING(155-341)-H232R
The experiment can be described thus: STING HTRF binding assay (time resolved FRET competition), STING WT. Particulars: 20 nM His-tagged STING WT cytoplasmic domain, 200 nM fluorescein-labeled cGAMP analog probe, one hour; read-out: HTRF Binding Assays IC50 (μM) WT. How it is done: as §1

Where two headings read alike, the source gives them in different places. Some results are limits rather than exact numbers.

T2 sequence (Q86WV6 with tags, fused parts or gaps H232R): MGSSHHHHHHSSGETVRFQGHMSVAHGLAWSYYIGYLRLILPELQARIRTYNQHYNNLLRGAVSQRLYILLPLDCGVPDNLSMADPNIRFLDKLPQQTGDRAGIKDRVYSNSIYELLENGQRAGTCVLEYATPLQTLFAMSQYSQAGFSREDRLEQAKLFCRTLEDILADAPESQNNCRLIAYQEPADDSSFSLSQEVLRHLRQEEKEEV
T1 sequence (Q86WV6 with tags, fused parts or gaps G230A/H232R/R293Q): as the sequence (Q86WV6 with tags, fused parts or gaps H232R) above, with G99A, R162Q counted along it

Consider `NC(=O)c1cc([C@@H]2O[C@@H]3COP(=O)(S)OC[C@@H]4[C@@H](COP(=O)(S)O[C@@H]2[C@@H]3O)C[C@H]4n2cnc3c(N)ncnc32)ccn1` (single isomer, unassigned) [Example 20-1], for which the 50% inhibitory concentration (IC50) in experiment [1] and in experiment [4] was above 100 µM in each case. The EC50 in experiment [2] (20 hours) and in experiment [3] (20 hours) was above 100 µM each time.

Consider `NC(=O)c1cc([C@@H]2O[C@@H]3COP(=O)(S)OC[C@@H]4[C@@H](COP(=O)(S)O[C@@H]2[C@@H]3O)C[C@H]4n2cnc3c(N)ncnc32)ccn1` (single isomer, unassigned) [Example 20-3], for which the half-inhibitory concentration (IC50) in experiment [1] and in experiment [4] was 0.01 µM throughout. Also, the values for the concentration giving a half-maximal response (EC50) in experiment [2] (20 hours) and in experiment [3] (20 hours) were 5.23 µM and 7.64 µM, respectively.

For the compound `Nc1ncnc2c1ncn2[C@@H]1O[C@@H]2COP(=O)(S)OC[C@@H]3[C@@H](COP(=O)(S)O[C@H]2[C@H]1F)C[C@H]3n1cnc2c(=O)n3nnnc3[nH]c21` (single isomer, unassigned) [Example 23], the results for the IC50 in experiment [1] and in experiment [4] were 0.07 µM and 4.96 µM, respectively. For the same compound, the concentration for a half-maximal effect (EC50) in experiment [2] (Homo sapiens, THP1-Dual, 20 h) is above 100 µM; in experiment [3] (Homo sapiens, THP1-Dual, 20 h) it was 92.2 µM.

`Nc1ncnc2c1ncn2[C@@H]1C[C@@H]2COP(=O)(S)O[C@H]3[C@@H](F)[C@H](n4cnc5c4ncn4ccnc54)O[C@@H]3COP(=O)(S)OC[C@H]21` (single isomer, unassigned) [Example 17-3]: the concentration for half-maximal inhibition (IC50) in experiment [1] was 0.11 µM; in experiment [4], 5.22 µM. For the same compound, the EC50 in experiment [2] (20 hours) was found to be 73.7 µM; in experiment [3] (20 hours), 89.6 µM.

On to `Nc1ncnc2c1ncn2[C@@H]1C[C@@H]2COP(=O)(O)O[C@@H]3[C@H](O)[C@@H](COP(=O)(S)OC[C@H]21)O[C@H]3n1cnc2c(=O)n3ccnc3[nH]c21` (single isomer, unassigned) [Example 4-1], for which the results for the concentration for half-maximal inhibition (IC50) in experiment [1] and in experiment [4] were 0.1 µM and 11.1 µM, respectively. Further, the concentration for a half-maximal effect (EC50) is above 100 µM in experiment [2] (Homo sapiens, THP1-Dual, 20 h) and above 100 µM in experiment [3] (Homo sapiens, THP1-Dual, 20 h).

For the compound `Nc1ncnc2c1ncn2[C@@H]1C[C@@H]2COP(=O)(S)O[C@H]3[C@@H](O)[C@H](n4cnc5c(=O)n6cc[nH]c6nc54)O[C@@H]3COP(=O)(S)OC[C@H]21` (single isomer, unassigned) [Example 5-1], the IC50 in experiment [1] and in experiment [4] was above 100 µM each time. For the same compound, the concentration for a half-maximal effect (EC50) in experiment [2] (Homo sapiens, THP1-Dual, 20 h) is above 100 µM; in experiment [3] (Homo sapiens, THP1-Dual, 20 h) it was above 100 µM.

`Nc1ncnc2c1ncn2[C@@H]1C[C@@H]2COP(=O)(S)O[C@@H]3[C@H](F)[C@@H](COP(=O)(S)OC[C@H]21)O[C@H]3n1cnc2c(=O)n3cc[nH]c3nc21` (single isomer, unassigned) [Example 6-3]: the IC50 in experiment [1] worked out at 0.22 µM; in experiment [4], 9.24 µM. Also, the EC50 in experiment [2] (20 hours) and in experiment [3] (20 hours) was above 100 µM throughout.

Take `NC(=O)c1cc([C@@H]2C[C@@H]3COP(=O)(S)O[C@H]4[C@@H](F)[C@H](n5cnc6c(N)ncnc65)O[C@@H]4COP(=O)(S)OC[C@H]32)ccn1` (single isomer, unassigned) [Example 10]: the concentration for half-maximal inhibition (IC50) in experiment [1] amounted to 2.3 µM; in experiment [4], 40.9 µM. Besides, the concentration for a half-maximal effect (EC50) in experiment [2] (20 hours) and in experiment [3] (20 hours) was above 100 µM throughout.

In the case of `Nc1ncnc2c1ncn2[C@@H]1C[C@@H]2COP(=O)(S)O[C@@H]3[C@H](F)[C@@H](COP(=O)(S)OC[C@H]21)O[C@H]3n1cnc2c1ncn1ccnc21` (single isomer, unassigned) [Example 8-1], the IC50 in experiment [1] was 3.41 µM; in experiment [4], 11.1 µM. Also, the EC50 in experiment [2] (20 hours) and in experiment [3] (20 hours) was above 100 µM each time.

Consider `Nc1ncnc2c1ncn2[C@@H]1O[C@@H]2COP(=O)(S)OC[C@@H]3[C@@H](COP(=O)(S)O[C@H]2[C@H]1F)C[C@H]3n1cnc2c1ncn1ccnc21` (single isomer, unassigned) [Example 3-1], for which the IC50 turned out to be 0.09 µM in experiment [1] and 1.38 µM in experiment [4]. For the same compound, the 50% effective concentration (EC50) was 93.1 µM in experiment [2] (20 hours) and above 100 µM in experiment [3] (20 hours).

For the origin of these results see US11339185B2, “Cyclic dinucleotides as anticancer agents” (Bristol-Myers Squibb Company, priority 2018, dated 2022).
